Results as given in article PMC8145430 (Chemical Science, 2019).

Tested on: A549 cells
Test: Confocal imaging of intracellular localization of fluorescein-labeled peptides
Assay type: cell-based, human
Details: 1 μM, 10 minutes, 37°C, confocal images

## H-GLFDIIKKIAESF-K(FAM)K5SKTKC(Far)-OMe [FAM-Memrasin]
  tethering on the PM: displays a clearer tethering on the PM
